Test results as given in US6958360B2, “Attractant pheromone for the Colorado potato beetle” (The United States of America as represented by the …, priority 2001, dated 2005).
Marks after values point to notes of the source that are not given here.

Columns and labels:
[1] = system: Colorado potato beetle (CPB); assay: Field test, baited pitfall traps; assay type: in vivo, Leptinotarsa decemlineata
Description: Insects: Insects were maintained under the same regimen as for laboratory bioassays. Prior to release in the field, adult CPB were combined into pint containers with moistened paper and potato foliage in groups of 25. Insects were removed from foliage ca. 3 hours prior to release.
Chemical treatments: (S)-CPB I vs. control. CPB I was dissolved into a carrier solution of 20% polyethylene glycol, 42% methanol, 25% glycerol, and 13% distilled water at a concentration of 1 μg/μl. For treatment lures, 500 μl were injected into 1″ long cigarette filters (500 μg CPBI/lure). Control lures consisted of 1″ cigarette filters treated with 500 μl of the carrier solution. Lures were prepared and placed into plastic zip-lock bags for transport to the field. (S)-CPB I+3-component plant blend vs. 3-component plant blend. (Z)-3-hexenyl acetate, (±)-linalool, and methyl salicylate (10 μl each) were added to 3 ml of the carrier solution for a total concentration of 1%. This solution was split into two 1.5 ml samples and CPB I dissolved into one of the samples at a concentration of 1 μg/μl. One treatment consisted of 500 μl of 1% 3-component plant blend injected into 1″ cigarette filters, 500 μl of 1% 3-component plant blend+1 μg/μl CPB I (500 μg CPB I/lure) injected into 1″ cigarette filters comprised the second treatment. Lures were prepared and placed into zip-lock bags for transport to the field.
Experimental procedure: Six pitfall traps (22 cm diam.×21 cm depth) were set in a hexagonal pattern 6 m diameter in an isolated grass field mowed one day prior to release of insects. One lure was attached to a 1 m vertical yellow posts set through the center of each pitfall trap, with treatment and controls alternating around the hexagonal array. Tacky-trap was laced along the rim of each pitfall trap, and on the center post at trap level, to prevent insect escape. […]
Statistical analysis: Field tests were assessed for significant differences by a paired t-test (Ostle, B., Statistics in Research (1963), 2nd ed., The Iowa State University Press, Ames, Iowa).

CPB adult antenna = assay: Coupled GC/electroantennogram detection (GC/EAD, EAG); set-up: species or system Leptinotarsa decemlineata
Description: Vertical bars represent standard errors (N=6, 3 males and 3 females).
GC/EAD analysis of volatile collections: One microlitre samples of volatile collections were injected into a Hewlett Packard™ Model 5890A gas chromatograph (GC) equipped with an HP-5 capillary column (crosslinked 5% PH ME Siloxane; film thickness 0.25 μm; length 30 m; i.d. 0.25 mm) and flame ionization detector (FID). The effluent from the column was split using a Gerstel™ GraphPack-3D/2 splitter with a ratio of ˜1 to the GC (FID): 4 to an electroantennogram preparation of a CPB adult (EAD). The EAD preparation was an adult CPB antenna removed and mounted between two glass capillary electrodes filled with 0.1M NaCl. Ag—AgCl wires in the glass capillaries. An effluent conditioning assembly to carry GC effluent over a CPB antennal preparation, hardware, and software for data collection and analyses using a computer were obtained from SYNTECH (Hilversum, the Netherlands). After an initial temperature of 50° C. held for 2 minutes following injection, the GC oven increased at 15° C./min to 235° C. which was held for 8 minutes.
Sensitivity of antennal olfactory receptors for the racemate and optical isomers of the male specific compound were tested using coupled GC/EAD and single sensillum recording techniques. GC/EAD tests involved injection of 1 μl of serial dilutions of 3,7-dimethyl-2-oxo-oct-6-ene-1,3-diol (CPB I).

`CC(C)=CCC[C@](C)(O)C(=O)CO` [(S)-CPB I, (S)-3,7-dimethyl-2-oxo-oct-6-ene-1,3-diol] was tested, and the “Mean number of CPB captured, Males” value ([1]; 500 μg CPB I/lure, mean of three replicates, 100 released, control 2.67) was 9.00*, the “Mean number of CPB captured, Females” value ([1]; 500 μg CPB I/lure, mean of three replicates, control 1.33) was 7.33* and the “Mean number of CPB captured, Total” value ([1]; combined mean of six replicates, control 2.00) was 8.17**. For the same molecule, the “Mean EAG (in words)” value (CPB adult antenna; 10 ng injection, males and females combined) was “significantly greater for the (S)-enantiomer than the (R)-enantiomer” and the “EAD response to compound in volatile collections (in words)” value (CPB adult antenna; volatiles from potato plants / CPB feeding on plant) was “a large EAD was consistently present”.
